# From ChEMBL document CHEMBL1135064, “Studies on quinazolinones as dual inhibitors of Pgp and MRP1 in multidrug resistance” (Bioorg Med Chem Lett, 2002)
# Tests used:
# [1] = target: ATP-dependent translocase ABCB1 (Mus musculus, UniProt P06795); test: Inhibitory activity against P-glycoprotein (Pgp) using accumulation assay for Pgp expressing EMT6/AR1.0 cells.; type: functional
# [2] = target: Multidrug resistance-associated protein 1 (Homo sapiens, UniProt P33527); test: Inhibition of multidrug resistance associated protein type 1 (MRP1) assayed by an accumulation assay in COR.L23/R cells; type: functional, cell-based
# Chain of Multidrug resistance-associated protein 1 (P33527 whole entry): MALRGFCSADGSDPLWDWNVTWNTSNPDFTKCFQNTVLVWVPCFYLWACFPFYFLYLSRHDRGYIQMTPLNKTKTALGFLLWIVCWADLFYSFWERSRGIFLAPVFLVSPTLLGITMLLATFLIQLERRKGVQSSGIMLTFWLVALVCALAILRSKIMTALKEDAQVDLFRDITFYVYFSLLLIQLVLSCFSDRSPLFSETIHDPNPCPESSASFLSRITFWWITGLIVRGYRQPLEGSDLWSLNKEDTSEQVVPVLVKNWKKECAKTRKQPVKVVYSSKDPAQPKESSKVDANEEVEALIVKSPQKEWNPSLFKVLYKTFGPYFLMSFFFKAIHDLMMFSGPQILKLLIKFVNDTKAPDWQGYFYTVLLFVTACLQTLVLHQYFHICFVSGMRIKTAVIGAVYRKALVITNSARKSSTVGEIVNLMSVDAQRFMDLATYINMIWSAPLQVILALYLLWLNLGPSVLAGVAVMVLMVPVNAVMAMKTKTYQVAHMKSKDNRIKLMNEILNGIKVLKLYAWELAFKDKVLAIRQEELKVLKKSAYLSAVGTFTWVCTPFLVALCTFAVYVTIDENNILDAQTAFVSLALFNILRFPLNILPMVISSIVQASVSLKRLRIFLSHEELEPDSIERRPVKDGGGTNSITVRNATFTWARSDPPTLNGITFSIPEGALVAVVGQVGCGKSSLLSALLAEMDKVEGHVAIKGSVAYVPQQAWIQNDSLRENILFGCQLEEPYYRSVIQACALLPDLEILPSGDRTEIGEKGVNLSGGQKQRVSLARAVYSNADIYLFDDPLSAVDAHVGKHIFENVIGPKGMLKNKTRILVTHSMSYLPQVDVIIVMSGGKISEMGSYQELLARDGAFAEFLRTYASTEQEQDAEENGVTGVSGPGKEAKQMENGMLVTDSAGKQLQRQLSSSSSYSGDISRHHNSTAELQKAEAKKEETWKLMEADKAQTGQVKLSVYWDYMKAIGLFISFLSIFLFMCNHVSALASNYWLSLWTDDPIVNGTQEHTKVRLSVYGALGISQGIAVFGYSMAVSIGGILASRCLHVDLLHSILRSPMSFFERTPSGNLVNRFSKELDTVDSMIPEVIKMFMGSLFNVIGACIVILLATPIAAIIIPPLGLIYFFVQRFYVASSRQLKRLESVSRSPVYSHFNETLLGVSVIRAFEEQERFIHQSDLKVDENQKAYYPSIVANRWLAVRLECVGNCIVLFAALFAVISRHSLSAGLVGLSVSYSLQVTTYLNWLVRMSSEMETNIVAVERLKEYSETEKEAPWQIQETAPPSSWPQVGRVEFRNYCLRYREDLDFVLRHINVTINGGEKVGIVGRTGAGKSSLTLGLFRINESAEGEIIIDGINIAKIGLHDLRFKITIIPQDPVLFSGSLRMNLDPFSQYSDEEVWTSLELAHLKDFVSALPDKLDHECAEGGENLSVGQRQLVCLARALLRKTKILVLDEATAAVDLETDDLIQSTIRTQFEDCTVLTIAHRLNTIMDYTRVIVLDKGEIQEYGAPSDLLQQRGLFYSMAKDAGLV
# [3] = Compound was evaluated for its inhibitory activity against multidrug resistance associated protein type 1 (MRP) using potentiation assay; type: functional, Homo sapiens
# EMT6 = test: Compound was evaluated for its inhibitory activity against P-glycoprotein (Pgp) using potentiation assay; type: functional, cell-based; settings: Mus musculus
# Chain of ATP-dependent translocase ABCB1 (P06795 whole entry): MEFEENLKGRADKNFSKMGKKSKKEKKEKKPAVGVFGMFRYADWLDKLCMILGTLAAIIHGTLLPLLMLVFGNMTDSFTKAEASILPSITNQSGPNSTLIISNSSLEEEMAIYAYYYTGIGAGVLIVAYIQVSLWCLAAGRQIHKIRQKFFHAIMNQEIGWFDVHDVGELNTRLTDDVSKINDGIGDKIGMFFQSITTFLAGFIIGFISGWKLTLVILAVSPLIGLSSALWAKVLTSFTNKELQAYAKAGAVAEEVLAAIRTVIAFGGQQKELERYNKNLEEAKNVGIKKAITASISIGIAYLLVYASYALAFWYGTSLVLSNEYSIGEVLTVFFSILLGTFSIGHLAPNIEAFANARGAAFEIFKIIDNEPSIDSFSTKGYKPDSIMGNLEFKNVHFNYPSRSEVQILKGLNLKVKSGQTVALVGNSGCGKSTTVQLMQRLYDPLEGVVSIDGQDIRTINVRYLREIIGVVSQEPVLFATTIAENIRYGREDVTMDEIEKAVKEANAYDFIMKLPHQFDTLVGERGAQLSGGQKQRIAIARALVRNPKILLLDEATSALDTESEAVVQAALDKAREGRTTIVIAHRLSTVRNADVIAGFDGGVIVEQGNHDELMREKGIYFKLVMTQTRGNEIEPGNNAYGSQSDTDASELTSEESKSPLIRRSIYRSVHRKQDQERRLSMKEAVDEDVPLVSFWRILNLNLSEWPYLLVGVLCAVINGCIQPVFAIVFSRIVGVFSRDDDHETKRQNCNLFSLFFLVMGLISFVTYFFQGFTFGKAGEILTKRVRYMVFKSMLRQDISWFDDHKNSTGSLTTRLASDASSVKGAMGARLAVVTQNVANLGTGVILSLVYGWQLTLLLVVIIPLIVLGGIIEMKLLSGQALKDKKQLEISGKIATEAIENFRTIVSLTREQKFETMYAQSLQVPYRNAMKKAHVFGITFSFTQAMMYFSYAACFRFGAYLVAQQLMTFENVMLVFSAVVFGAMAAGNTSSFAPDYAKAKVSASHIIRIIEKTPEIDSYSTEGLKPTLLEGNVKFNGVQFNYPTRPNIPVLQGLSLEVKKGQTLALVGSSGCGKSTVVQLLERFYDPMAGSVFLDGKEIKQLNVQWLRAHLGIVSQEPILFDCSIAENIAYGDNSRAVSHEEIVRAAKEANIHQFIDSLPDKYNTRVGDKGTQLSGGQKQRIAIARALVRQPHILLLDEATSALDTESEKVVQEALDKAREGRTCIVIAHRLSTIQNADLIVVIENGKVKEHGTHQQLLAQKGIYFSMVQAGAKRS
IC50 [1] [µM],IC50 [2] [µM],EC50 [3] [µM],EC50 (EMT6) [µM],Compound
1.06,2.91,,,COc1cc2c(cc1OC)CN(CCn1c(-c3ccc(N(C)C)cc3)nc3c(Cl)cccc3c1=O)CC2
,95,,,COc1cc2c(cc1OC)CN(CCn1c(-c3ccccc3O)nc3ccccc3c1=O)CC2
2.1,39,,,CN(C)c1ccc(-c2nc3ccccc3c(=O)n2CCN2CCN(Cc3ccccc3)CC2)cc1
1.07,1.05,3.01,3.3,COc1cc2c(cc1OC)CN(CCn1c(-c3ccc(N(C)C)cc3)nc3ccccc3c1=O)CC2
1.35,1.33,,,COc1cc2c(cc1OC)CN(CCn1c(-c3ccc(N(C)C)cc3)nc3cc(Cl)ccc3c1=O)CC2
8,2.8,,,COc1cc2c(cc1OC)CN(CCn1c(-c3ccccc3)nc3ccccc3c1=O)CC2
3.7,1.5,,,COc1cc2c(cc1OC)CN(CCn1c(-c3ccc4c(c3)OCO4)nc3ccccc3c1=O)CC2
10,3.33,,,CN(C)c1ccc(-c2nc3ccccc3c(=O)n2CCc2ccncc2)cc1
1.1,2.02,,,COc1cc2c(cc1OC)CN(CCn1c(-c3ccc(N(C)C)cc3)nc3cc([N+](=O)[O-])ccc3c1=O)CC2
1.3,> 10,,,CCN(CC)c1ccc(-c2nc3ccccc3c(=O)n2CCN2CCc3cc(OC)c(OC)cc3C2)cc1
1.7,1.56,,,COc1cc2c(cc1OC)CN(CCn1c(-c3ccc(N(C)C)cc3)nc3ccc(Cl)cc3c1=O)CC2
4.2,7.2,,,COc1cc(C(=O)N2CCN(CCn3c(-c4ccc(N(C)C)cc4)nc4ccccc4c3=O)CC2)cc(OC)c1OC
0.63,6.35,,,COc1cc2c(cc1OC)CN(CCn1c(-c3ccc(N(C)C)cc3)nc3c(C)cccc3c1=O)CC2

# Continued, compound first:
Compound,IC50 [1] [µM],IC50 [2] [µM],EC50 [3] [µM],EC50 (EMT6) [µM]
COc1ccc(CCN(C)CCn2c(-c3ccc(N(C)C)cc3)nc3ccccc3c2=O)cc1OC,1.9,37,,
COc1cc2c(cc1OC)CN(CCn1c(-c3ccc(N(C)C)cc3)nc3ccc(N)cc3c1=O)CC2,2,7.6,,
CCCCCCn1c(-c2ccc(N(C)C)cc2)nc2ccccc2c1=O,40,> 100,,
COc1cc2c(cc1OC)CN(CCn1c(-c3ccc(N(C)C)cc3)nc3ccc([N+](=O)[O-])cc3c1=O)CC2,0.6,0.4,,
COc1cc2c(cc1OC)CN(CCn1c(-c3ccc(N(C)C)cc3)nc3cc(N)ccc3c1=O)CC2,7.2,18.6,,
COc1cc(C(=O)C(=O)N2CCCC[C@H]2C(=O)OC(CCCc2cccnc2)CCCc2cccnc2)cc(OC)c1OC [BIRICODAR],5,5.18,,
COc1cc2c(cc1OC)CN(CCn1c(-c3ccc(N(C)C)cc3)nc3c(OC)cccc3c1=O)CC2,0.05,15.1,,
CN(C)c1ccc(-c2nc3ccccc3c(=O)n2Cc2ccccc2)cc1,41,> 100,,
CN(C)c1ccc(-c2nc3ccccc3c(=O)n2CCN2CCc3ccccc3C2)cc1,5,3.2,,
COc1cc2c(cc1OC)CN(CCn1c(-c3ccc4ccccc4c3)nc3ccccc3c1=O)CC2,0.85,0.9,,
COc1cc2c(cc1OC)CN(CCn1c(-c3ccc(N(C)C)cc3)nc3cccc(Cl)c3c1=O)CC2,0.16,3.84,,
COc1cc2c(cc1OC)CN(CCn1c(-c3cccc(N(C)C)c3)nc3ccccc3c1=O)CC2,1.6,4.5,,
COc1cc2c(cc1OC)CN(CCn1c(-c3ccc(C(C)C)cc3)nc3ccccc3c1=O)CC2,1,0.5,,
CN(C)c1ccc(-c2nc3ccccc3c(=O)n2CCN2CCN(c3ncccn3)CC2)cc1,0.39,36,,
CCCc1cccc(-c2nc3ccccc3c(=O)n2CCN2CCc3cc(OC)c(OC)cc3C2)c1,0.8,1,,
CN(C)c1ccc(-c2nc3ccccc3c(=O)n2CC2CCCCC2)cc1,14,10,,
COc1cc2c(cc1OC)CN(CCn1c(-c3ccc(-c4ccccc4)cc3)nc3ccccc3c1=O)CC2,1.03,1,,
